According to patent US20220274947A1, “NOVEL HETEROARYL-TRIAZOLE COMPOUNDS AS PESTICIDES” (Bayer Aktiengesellschaft, priority 2019, published 2022):

Experiments:
Format in all cases: in vivo
Ctenocephalides felis [1] = experiment: Ctenocephalides felis in-vitro contact test, adult cat flea (CTECFE Cont); settings: application rate 5 μg/cm^2 (=500 g/ha), adult cat fleas, after 48 hours, read-out: activity (efficacy: 100% means all fleas are dead or moribund)
Procedure, shortened: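 Efficacy, as percent of fleas dead or moribund, was scored 48 h after adults (5-10 per tube) were placed in glass tubes whose walls carried dried compound at 5 μg/cm^2 (900 ppm solution). Moribund meant failing to climb away from a 45-50° C. hot plate within 5 min.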

Diabrotica balteata = Diabrotica balteata spray test; settings: 168 h, wheat seeds, larvae, after 7 days, read-out: activity (efficacy: 100% means all seedlings have grown up like in the untreated, uninfected control); for pest or weed control at 160 µg/disc, 500 g/ha: application rate 500 g/ha (=160 μg/well); for pest or weed control at 32 µg/disc, 100 g/ha: application rate 100 g/ha (=32 μg/well)
Procedure, shortened: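 Efficacy (%) was scored 7 days after spraying, with 100% meaning growth like the untreated, uninfected control and 0% meaning no seedling grew. Spray solutions of compound in acetone/DMF with emulsifier-containing water went onto 1-day-germinated wheat seeds, and each unit was then infested with 10-20 banded cucumber beetle larvae.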

Spodoptera frugiperda = Spodoptera frugiperda spray test; settings: in Zea mays, 168 h, read-out: activity (mortality)
Procedure, shortened: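 Percent kill of fall armyworm caterpillars was assessed 7 days after infesting dried, treated maize leaf sections. Treatment was a spray of compound in acetone/dimethylformamide, diluted with water containing emulsifier at 1000 ppm.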

Rhipicephalus microplus [2] = experiment: Rhipicephalus (Boophilus) microplus injection test (BOOPMI Inj); settings: 168 h, injection into adult engorged female ticks, egg deposition after 7 days, read-out: activity (efficacy: 100% means all eggs are infertile); for pest or weed control at 0.004 mg: application rate 4 μg/tick; for pest or weed control at 0.02 mg: application rate 20 μg/tick
Procedure, shortened: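 Compound in DMSO, 1 μL, injected abdominally into five adult engorged females, which were then held in a climate chamber. Read-out is egg fertility, scored from deposition at 7 days, with unclear eggs followed to hatching (~42 days); 0% means all eggs fertile, 100% all infertile.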

Rhipicephalus microplus [3] = experiment: Rhipicephalus (Boophilus) microplus in-vitro contact test, larval cattle tick, strain Parkhurst (BOOPMI Cont); settings: application rate 5 μg/cm^2 (=500 g/ha), tick larvae, after 48 hours, read-out: activity (efficacy: 100% means all larvae are dead or moribund)
Procedure, shortened: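 After 48 h at 27° C. and 85% humidity, percent dead or moribund larvae was scored from negative geotactic behaviour. Larvae (20-50, Parkhurst strain, synthetic pyrethroid-resistant) were exposed in tubes coated with compound from acetone, 900 ppm corresponding to 5 μg/cm^2.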

Ctenocephalides felis [4] = experiment: Ctenocephalides felis oral test (CTECFE Oral); settings: 48 h, read-out: activity (mortality)
Procedure, shortened: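 Percent mortality was recorded 2 days after roughly 20 adult Ctenocephalides felis fed on treated cattle blood. The blood was warmed to 37 °C beneath a parafilm membrane, with the fleas kept at room temperature. Compound was dissolved in DMSO and diluted into the blood to test concentration.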

Myzus persicae = Myzus persicae spray test; settings: in Brassica rapa, foliar, 120 h; for mortality at 500 g/ha: read-out: activity (mortality), application rate 500 g/ha, spray, Chinese cabbage leaf disks, after 5 days; for mortality at 100 g/ha: read-out: activity (mortality), application rate 100 g/ha, spray, Chinese cabbage leaf disks, after 5 days
Procedure, shortened: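 Aphid mortality in % was assessed 5 days after spraying; leaf disks of Brassica pekinensis carrying mixed-instar green peach aphids were treated. Spray preparation: active compound in acetone plus dimethylformamide, diluted with emulsifier-containing water (1000 ppm).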

Row | SMILES | pest or weed control at 5 µg/cm2 (Ctenocephalides felis [1]) [%] | pest or weed control at 160 µg/disc, 500 g/ha (Diabrotica balteata) [%] | mortality at 500 g/ha (Spodoptera frugiperda) [%] | pest or weed control at 0.004 mg (Rhipicephalus microplus [2]) [%] | pest or weed control at 0.02 mg (Rhipicephalus microplus [2]) [%] | pest or weed control at 5 µg/cm2 (Rhipicephalus microplus [3]) [%] | mortality at 100 ppm (Ctenocephalides felis [4]) [%] | mortality at 500 g/ha (Myzus persicae) [%] | mortality at 100 g/ha (Spodoptera frugiperda) [%] | pest or weed control at 32 µg/disc, 100 g/ha (Diabrotica balteata) [%] | mortality at 100 g/ha (Myzus persicae) [%]
1 | CC(=O)Nc1ccnc(-n2ncnc2[C@H](C)NC(=O)c2cc(Cl)cc(OC(F)(F)F)c2)c1 [II-22] | 100 | 100 | 83 | 100 | 100 | 80 | 100 | – | – | – | –
2 | CCN(C)C(=O)c1ccc(-n2ncnc2[C@H](C)NC(=O)c2cc(Cl)cc(C(F)(F)F)c2)nc1 [II-27] | 100 | 100 | 83 | 100 | 100 | 100 | – | 90 | 83 | – | –
3 | C[C@H](NC(=O)c1cc(Cl)cc(C(F)(F)F)c1)c1ncnn1-c1cc(N)ccn1 [II-28] | 100 | 100 | 100 | 100 | 100 | 90 | 100 | – | – | 100 | –
4 | C[C@H](NC(=O)c1cc(Cl)cc(OC(F)(F)F)c1)c1ncnn1-c1ncc(OC(F)F)cn1 [II-30] | 100 | 100 | 100 | 100 | 100 | 100 | 100 | – | 100 | 100 | –
5 | CCN(C(=O)c1ccc(-n2ncnc2[C@H](C)NC(=O)c2cc(Cl)cc(C(F)(F)F)c2)nc1)C1CC1 [II-31] | 100 | 100 | 100 | 100 | 100 | 100 | – | 100 | 100 | 100 | 100
6 | CC(=O)Nc1ccnc(-n2ncnc2[C@H](C)NC(=O)c2cc(Cl)cc(C(F)(F)F)c2)c1 [II-36] | 80 | – | 100 | 100 | 100 | 100 | – | 90 | 100 | – | –
7 | C[C@H](NC(=O)c1cc(C(F)(F)F)cc(C(F)(F)F)c1)c1ncnn1-c1ncc(Br)s1 [II-41] | – | 100 | – | 100 | 100 | 100 | – | – | 100 | 100 | –
8 | C[C@H](NC(=O)c1cc(Cl)cc(C(F)(F)F)c1)c1ncnn1-c1cc(-n2cncn2)ccn1 [II-43] | 100 | 100 | 100 | 100 | 100 | 100 | – | – | 100 | 100 | –
9 | Cc1nc([C@H](C)NC(=O)c2cc(C(F)(F)F)cc(C(F)(F)F)c2)n(-c2ccc(C(=O)N(C)CC#N)cn2)n1 [II-99] | 100 | – | – | 100 | – | 100 | – | – | – | 100 | 90
10 | C[C@H](NC(=O)c1cc(OC(F)(F)F)cc(C(F)F)c1)c1ncnn1-c1ccc(C#N)cn1 [II-111] | 100 | – | – | 100 | – | 100 | – | – | 100 | 100 | –
